Our source for the IC50 values is publication PMC11285368, “Chasing Red Herrings: Palladium Metal Salt Impurities Feigning KRAS Activity in Biochemical Assays” (Journal of Medicinal Chemistry, 2024).

The structures appear in SMILES notation.

As a reminder, the IC50 is the concentration that gives 50% inhibition.

What all share (type): biochemical
For one assay, the system named is KRAS GDP. As to the kind of experiment: KRAS AlphaScreen, Target #1. The procedure: (§1) Metal salt solutions for the metal ion interference set (MIIS) were prepared as 10 mM stock solutions in DMSO (see Table 3). All metal salts used have been purchased at highest industrial grade.
On the technique in general: In Alpha technology, singlet oxygen from a donor bead excites a nearby acceptor bead.

The next assay relates to off-target (int.). As to the kind of experiment: WRN ADP-Glo, Target #3. The procedure:
as §1
(ADP-Glo first removes unused ATP, then detects ADP through luciferase.)

The test system of assay [1] is off target. Briefly: KRAS AlphaScreen, Target #3. How it is done:
as §1

Assay [2] deals with off-target. Briefly: SOS1 AlphaScreen, Target #2. How it is done:
as §1

Assay [3] has as its system off-target. Briefly: FKBP51 AlphaScreen, Target #2. The procedure:
as §1

For assay [4], the target named is T1, SOS1 (Homo sapiens, UniProt Q07889).
T1 sequence (Q07889 1-1333): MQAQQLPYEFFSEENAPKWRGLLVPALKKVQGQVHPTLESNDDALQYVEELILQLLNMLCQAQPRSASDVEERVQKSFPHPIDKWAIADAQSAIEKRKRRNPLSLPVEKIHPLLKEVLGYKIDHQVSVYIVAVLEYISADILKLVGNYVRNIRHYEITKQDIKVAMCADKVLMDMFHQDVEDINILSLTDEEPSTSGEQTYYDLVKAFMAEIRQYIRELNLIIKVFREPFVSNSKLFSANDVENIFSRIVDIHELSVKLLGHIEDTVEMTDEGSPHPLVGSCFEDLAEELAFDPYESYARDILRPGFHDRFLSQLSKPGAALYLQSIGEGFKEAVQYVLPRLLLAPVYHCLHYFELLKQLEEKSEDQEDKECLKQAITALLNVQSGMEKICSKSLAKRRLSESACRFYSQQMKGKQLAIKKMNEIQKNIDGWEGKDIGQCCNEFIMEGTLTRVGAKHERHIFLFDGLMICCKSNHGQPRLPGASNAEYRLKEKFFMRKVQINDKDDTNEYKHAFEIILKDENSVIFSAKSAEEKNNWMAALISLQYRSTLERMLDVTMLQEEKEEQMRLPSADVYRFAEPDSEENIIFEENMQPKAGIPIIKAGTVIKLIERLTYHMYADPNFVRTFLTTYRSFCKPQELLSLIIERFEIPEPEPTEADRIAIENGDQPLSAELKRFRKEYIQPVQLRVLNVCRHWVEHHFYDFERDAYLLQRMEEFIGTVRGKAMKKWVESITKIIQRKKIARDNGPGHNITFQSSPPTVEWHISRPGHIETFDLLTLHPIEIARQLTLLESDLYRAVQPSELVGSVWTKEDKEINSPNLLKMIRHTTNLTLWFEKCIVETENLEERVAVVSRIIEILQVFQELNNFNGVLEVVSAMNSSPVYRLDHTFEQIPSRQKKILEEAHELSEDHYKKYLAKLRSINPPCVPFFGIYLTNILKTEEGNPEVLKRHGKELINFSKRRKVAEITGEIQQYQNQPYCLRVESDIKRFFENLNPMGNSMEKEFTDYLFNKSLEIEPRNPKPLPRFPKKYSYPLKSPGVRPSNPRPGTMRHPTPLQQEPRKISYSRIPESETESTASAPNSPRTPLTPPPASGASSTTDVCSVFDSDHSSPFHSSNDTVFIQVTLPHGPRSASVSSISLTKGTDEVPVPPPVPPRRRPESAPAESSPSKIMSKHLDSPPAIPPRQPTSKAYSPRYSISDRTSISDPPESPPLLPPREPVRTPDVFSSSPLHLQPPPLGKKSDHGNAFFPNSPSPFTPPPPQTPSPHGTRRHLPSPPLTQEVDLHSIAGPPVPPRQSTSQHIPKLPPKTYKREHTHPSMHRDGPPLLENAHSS
Briefly: SOS1 TR-FRET. As to conditions: read-out: Target #1 IC50. How it is done: as §1
On the technique in general: TR-FRET usually uses a lanthanide donor and a delayed reading to cut background.

The next assay addresses KRAS (Homo sapiens, UniProt P01116). As to the kind of experiment: KRAS TR-FRET (MIIS list). As to conditions: read-out: Target #1 IC50. The procedure:
as §1

The target in another assay is MDM2 (Homo sapiens, UniProt Q00987). As to the kind of experiment: MDM2 AlphaScreen, Target #1. The procedure:
as §1

Another assay concerns the target T2, FKBP51 (Homo sapiens, UniProt Q13451).
T2 sequence (Q13451 1-457): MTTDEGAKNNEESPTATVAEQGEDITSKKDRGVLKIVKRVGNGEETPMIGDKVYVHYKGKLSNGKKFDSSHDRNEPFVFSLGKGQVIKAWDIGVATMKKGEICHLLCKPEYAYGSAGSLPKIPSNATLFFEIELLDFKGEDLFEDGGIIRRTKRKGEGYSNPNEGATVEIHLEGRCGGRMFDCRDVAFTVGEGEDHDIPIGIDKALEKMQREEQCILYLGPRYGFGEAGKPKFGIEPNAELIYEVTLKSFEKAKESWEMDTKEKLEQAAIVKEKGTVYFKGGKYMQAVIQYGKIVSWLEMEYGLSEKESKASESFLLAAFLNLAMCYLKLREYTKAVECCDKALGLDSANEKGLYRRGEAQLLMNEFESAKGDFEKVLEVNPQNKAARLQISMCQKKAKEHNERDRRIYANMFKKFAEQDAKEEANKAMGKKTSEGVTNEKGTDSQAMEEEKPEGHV
As to the kind of experiment: FKBP51 AlphaScreen, Target #1. How it is done: as §1

In a further assay the target is BCL6 (Homo sapiens, UniProt P41182). Briefly: BCL6 Fluorescence Polarization. As to conditions: read-out: Target #1 IC50. How it is done: as §1
The test system of assay [5] is off target. As to the kind of experiment: FKBP51 AlphaScreen, Target #3. How it is done: as §1
Assay [6] deals with T1, SOS1. As to the kind of experiment: SOS1 AlphaScreen, Target #1. How it is done:
as §1

The next assay addresses UPAR (Homo sapiens, UniProt Q03405). Briefly: UPA-UPAR AlphaScreen, Target #1. How it is done: as §1
The test system of assay [7] is off-target. Briefly: UPA-UPAR AlphaScreen, Target #2. The procedure:
as §1

Sequence of UPAR (Q03405 23-305 limits assumed, species assumed): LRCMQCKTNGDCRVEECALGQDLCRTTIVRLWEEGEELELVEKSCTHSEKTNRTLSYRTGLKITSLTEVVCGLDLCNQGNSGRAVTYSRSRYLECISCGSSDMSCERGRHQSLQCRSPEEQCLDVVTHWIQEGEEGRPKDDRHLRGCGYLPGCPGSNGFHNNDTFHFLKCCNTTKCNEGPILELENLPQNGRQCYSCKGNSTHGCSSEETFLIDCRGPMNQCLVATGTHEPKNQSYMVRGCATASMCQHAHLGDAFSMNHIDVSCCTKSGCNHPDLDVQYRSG
Sequence of MDM2 (Q00987 whole entry, species assumed): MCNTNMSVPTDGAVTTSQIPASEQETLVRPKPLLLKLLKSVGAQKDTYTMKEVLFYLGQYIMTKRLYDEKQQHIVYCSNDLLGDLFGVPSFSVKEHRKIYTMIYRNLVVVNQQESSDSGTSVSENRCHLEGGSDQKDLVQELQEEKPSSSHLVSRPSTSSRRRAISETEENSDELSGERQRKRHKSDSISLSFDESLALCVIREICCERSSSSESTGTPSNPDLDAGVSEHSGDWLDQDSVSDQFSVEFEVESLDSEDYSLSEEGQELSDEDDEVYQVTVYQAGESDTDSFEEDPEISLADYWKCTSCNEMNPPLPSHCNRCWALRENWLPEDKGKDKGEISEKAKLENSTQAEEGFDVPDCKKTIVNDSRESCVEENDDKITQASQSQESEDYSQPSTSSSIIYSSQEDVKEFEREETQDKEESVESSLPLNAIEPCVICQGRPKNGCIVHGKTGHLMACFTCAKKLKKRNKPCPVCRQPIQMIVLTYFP
Sequence of KRAS (P01116 1-188 isoform P01116-2): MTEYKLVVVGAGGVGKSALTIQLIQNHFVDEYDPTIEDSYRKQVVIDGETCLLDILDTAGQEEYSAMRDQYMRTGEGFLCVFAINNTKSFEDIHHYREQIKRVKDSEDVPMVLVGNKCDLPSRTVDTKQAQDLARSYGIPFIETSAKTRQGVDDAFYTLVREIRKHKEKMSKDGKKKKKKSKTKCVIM

`CC(=O)[O-].[Ag+]` [Ag (CH 3COO), Silver acetate]: the concentration for half-maximal inhibition (IC50) in the assay with KRAS GDP is greater than 10 µM; with off-target (int.), greater than 10 µM; in the assay with off target [1], greater than 10 µM; in the assay with off-target [2] it was greater than 10 µM; in the assay with off-target [3] it was greater than 10 µM; at SOS1 [4], less than 1 µM. The IC50 at KRAS is less than 1 µM; against MDM2 it was greater than 10 µM; on FKBP51, greater than 10 µM; on BCL6 it was greater than 10 µM; in the assay on off target [5] it was greater than 10 µM; on SOS1 [6] it was less than 1 µM.
`[Cl][Au]([Cl])[Cl]` [AuCl3, Gold(III) chloride]: the IC50 was 1 to 10 µM in the assay on KRAS GDP; greater than 10 µM in the assay with off-target (int.); greater than 10 µM with off target [1]; greater than 10 µM in the assay with off-target [2]; greater than 10 µM with off-target [3]; less than 1 µM on SOS1 [4]. Further, the IC50 at KRAS was less than 1 µM; on UPAR it was 1 to 10 µM; against MDM2 it was greater than 10 µM; at FKBP51, greater than 10 µM; on BCL6 it was greater than 10 µM; in the assay with off target [5] it was greater than 10 µM. In addition, the 50% inhibitory concentration (IC50) in the assay on off-target [7] was 1 to 10 µM; against SOS1 [6], less than 1 µM.
For the compound `[Cl][Ni][Cl]` [NiCl2, Nickel(II) chloride], the IC50 with KRAS GDP, in the assay on off-target (int.), in the assay with off target [1], in the assay with off-target [2], with off-target [3] and on SOS1 [4] was greater than 10 µM throughout. In addition, the concentration for half-maximal inhibition (IC50) against UPAR is less than 1 µM; on MDM2 it was greater than 10 µM; against FKBP51, greater than 10 µM; on BCL6 it was greater than 10 µM; in the assay on off target [5], greater than 10 µM; with off-target [7] it was greater than 10 µM. The same compound yielded an IC50 against SOS1 [6] greater than 10 µM.
With `[Cl][Pd][Cl]` [PdCl2, Palladium(II) chloride], the IC50 is less than 1 µM in the assay with KRAS GDP; less than 1 µM in the assay on off-target (int.); greater than 10 µM in the assay on off target [1]; greater than 10 µM in the assay with off-target [2]; greater than 10 µM in the assay with off-target [3]; 1 to 10 µM at SOS1 [4]. Moreover, the IC50 against UPAR was less than 1 µM; on MDM2, greater than 10 µM; at FKBP51, greater than 10 µM; at BCL6 it was greater than 10 µM; in the assay on off target [5] it was greater than 10 µM; in the assay on off-target [7], less than 1 µM. The compound further gave an IC50 at SOS1 [6] of less than 1 µM.
For `[Cl][Sn][Cl]` [SnCl2, Tin(II) chloride], the IC50 in the assay with KRAS GDP is greater than 10 µM; in the assay on off-target (int.) it was greater than 10 µM; with off target [1] it was greater than 10 µM; in the assay with off-target [2], greater than 10 µM; in the assay on off-target [3], greater than 10 µM; on SOS1 [4], 1 to 10 µM. Also, the half-maximal inhibitory concentration (IC50) on UPAR was greater than 10 µM; on MDM2, greater than 10 µM; against FKBP51, 1 to 10 µM; at BCL6, greater than 10 µM; in the assay on off target [5], greater than 10 µM; in the assay with off-target [7] it was greater than 10 µM. In addition, the half-maximal inhibitory concentration (IC50) at SOS1 [6] was greater than 10 µM.
Consider `[Cl-].[Cl-].[Zn+2]` [ZnCl2, Zinc(II) chloride], for which the IC50 in the assay on KRAS GDP, in the assay with off-target (int.), in the assay on off target [1], with off-target [2], with off-target [3] and at SOS1 [4] was greater than 10 µM each time. Also, the IC50 was less than 1 µM on UPAR; greater than 10 µM on MDM2; greater than 10 µM at FKBP51; greater than 10 µM at BCL6; greater than 10 µM with off target [5]; greater than 10 µM in the assay with off-target [7]. Further, the concentration for half-maximal inhibition (IC50) against SOS1 [6] was greater than 10 µM.
